1 compound from publication doi:10.64898/2025.12.07.692800v1 (biorxiv, 2025) can be followed below.

The target in assay [1] is T1, LAG-3 / MHCII (Revvity HTRF Human LAG-3 / MHCII Binding Kit) (Homo sapiens, UniProt P18627).
T1 sequence (P18627 23-450 limits assumed): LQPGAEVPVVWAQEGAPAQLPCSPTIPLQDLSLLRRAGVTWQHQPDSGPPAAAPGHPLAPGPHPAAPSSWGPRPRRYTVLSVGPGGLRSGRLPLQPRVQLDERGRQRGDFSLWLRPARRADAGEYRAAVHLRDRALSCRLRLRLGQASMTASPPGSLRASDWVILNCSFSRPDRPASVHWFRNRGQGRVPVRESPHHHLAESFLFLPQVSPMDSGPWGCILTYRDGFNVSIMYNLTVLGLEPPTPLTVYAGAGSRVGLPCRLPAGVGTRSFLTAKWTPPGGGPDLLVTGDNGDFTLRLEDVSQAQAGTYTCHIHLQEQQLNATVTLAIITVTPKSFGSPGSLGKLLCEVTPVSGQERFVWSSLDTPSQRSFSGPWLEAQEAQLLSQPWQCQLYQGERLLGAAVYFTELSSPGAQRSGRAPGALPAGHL
Nature of the assay: HTRF.

The target of assay [2] is T2, LAG-3-His (recombinant human LAG-3; discussed as LAG-3 D1) (Homo sapiens, UniProt P18627).
T2 sequence (P18627 23-450 limits assumed): T1 sequence (P18627 23-450 limits assumed)
Nature of the assay: MST. Format: binding.

What is called EC50 is the midpoint of the concentration-response curve. Low values mean a more potent agent, high ones a less potent agent. The Kd is the constant that tells how readily two partners part at equilibrium.

Turning to `N#Cc1ccnnc1N1CCCC(c2c[nH]c3ncccc23)C1` (centres unmarked) [N05], the response in assay [1] was half-maximal at 42.9 µM (EC50). Moreover, in assay [2], the dissociation constant (Kd) came to 59.2 µM.
